From patent publication US20030124132A1 (University of Texas, published 2003)

Assays:
[1] = test system: L540rec human Hodgkin's lymphoma tumors; assay: Tumor tissue necrosis in L540 Hodgkin's lymphoma-bearing mice after tTF and/or endotoxin; format: in vivo, SCID mice
Method: For in vivo studies, a metastasizing mouse model for human Hodgkin's lymphoma was used. 1×10^7 L540rec cells were injected subcutaneously into the right flank of SCID mice resulting in a subcutaneous tumor with lymph node metastases in the regional lymph node stations. Subcutanous tumors were measured with a caliper in three perpendicular directions a. b, and c, and volumes calculated according to the formula V=π/6×a×b×c.
(§1) Treatment was initiated when subcutaneous tumors reached a size of 150 to 300 μl. Reagents were administered into the lateral tail vein.
(§2) Mice were closely observed after treatment for clinical signs of toxicity and clinical status was documented at defined time points (5 minutes, 10 minutes, 15 minutes, 30 minutes. 1 hour, 2 hours, 24 hours, 48 hours, 72 hours). Blood samples were taken from the tail vein at 1 hour, 2 hours and 24 hours to measure TNFα blood levels. Three days after treatment, the mice were anesthetized, blood samples were taken from the vena cava for coagulation tests, and an autopsy was performed to document any changes in gross pathology. Tumors, lymph node metastases and the major normal organs (heart, lung, brain, liver, kidney, colon, spleen, pancreas) were harvested and prepared for histological analysis.
(§3) Tissue samples harvested at the time of autopsy were fixed in 3% NBF (normal buffered formalin) and embedded in paraffin wax. Tissue blocs were cut, dewaxed and stained with hematoxilin and eosin (H&E). Tissue sections were analyzed on a light microscope by two independent investigators and histological findings were documented. Tumor sections with necrotic areas were scanned with a GS-700 imaging densitometer (Biorad, Hercules, Calif.) and areas of necrosis were calculated as % of total section area. Statistical Analysis was performed using SPSS software (SPSS Science Software, Erkrath, Germany) applying the Mann-Whitney-U-test for ungrouped data.

[2] = Clinical signs of toxicity and histology of normal organs in treated tumor-bearing mice; format: in vivo, SCID mice; details: for Symptoms (clinical signs of toxicity): endotoxin-free tTF alone
Method: as §1, §2, §3

[3] = test system: TNFα; assay: TNFα serum levels in treated animals (Quantikine-M kit); format: in vivo, mice; details: tTF containing no endotoxin (n=6); any of the time points
Method: as §2
TNFα levels in serum were deter-mined using the Quantikine-M kit (R&D Systems, Minneapolis, Minn.) according to the manufacturer's instructions.

[4] = test system: bEnd 3 cells; assay: Cell bound coagulation assay on stimulated endothelial cells (Factor Xa generation); format: cell-based, mouse; details: for Factor Xa generation due to Factor VIIa production: mix with 2 μg/ml factor VII and 0.01 μg/ml factor VIIa; for Factor Xa generation: mix with 0.5 μg/ml factor VIIa
Method: (§4) To assay the coagulation induction of stimulated versus unstimulated endothelial cells, bend 3 cells were seeded in 48 well tissue culture plates at a density of 1×10^4 cells per well and allowed to adhere overnight. Cells were stimulated with endotoxin (0.5 μg/ml and 10 μg/ml) or TNFα (500 U/ml) for 4 h at 37° C. […] After incubation for 45 min at room temperature, cells were washed and incubated with various coagulation factor mixes as follows: (1) 0.5 μg/ml factor VIIa in a mix containing 2.8 μg/ml factor IX, 3.4 μg/ml factor X, 50 μM phospholipids, in calcium buffer (as specified above); (2) 0.01 μg/ml factor VIIa in a mix as in (1); (3) 2 μg/ml factor VII (Calbiochem-Novabiochem, San Diego, Calif.) in a mix as in (1); (4) 2 μg/ml factor VII. 0.01 μg/ml factor VIIa in a mix as in (1). The supernatant of wells was transferred into a 96 well ELISA plate. Substrate S2765 was added and Factor Xa generation measured alongside different concentrations of Factor Xa standard (7 nkatS2222; 0.7 nkatS2222; 0.07 nkatS2222). OD405 nm values were calculated as nkatS2222 Factor Xa from the Factor Xa standard curve.
as §4, with “bEnd” for “To assay the coagulation induction of stimulated versus unstimulated endothelial cells, bend”, “with” for “with various”, “mix” for “mixes”, “follows:” for “follows: (1)”, “buffer;” for “buffer (as specified above); (2) 0.01 μg/ml factor VIIa in a mix as in (1); (3) 2 μg/ml factor VII (Calbiochem-Novabiochem, San Diego, Calif.) in a mix as in (1); (4) 2 μg/ml factor VII. 0.01 μg/ml factor VIIa in a mix as in (1). The”

[5] = test system: 2F2B mouse endothelial cells; assay: Binding of tTF to tissue factor-expressing endothelial cells (FACS, cell bound coagulation assay); format: cell-based; details: FACS analysis or cell bound coagulation assay
Method: Cells were washed and coagulation factor mix (as described above) was added. S2765 substrate was added and Factor Xa generation was measured as described above.
2F2B cells were stimulated with LPS (20 μg/ml) or TNFα (500 U/ml) for 4 h at 37° C. […] Fluorescent cells were detected on a flow cytometer (Becton Dickinson, San Jose, Calif.).

[6] = test system: F9 sarcoma tumors; assay: Tumor tissue necrosis in F9 sarcoma mouse model; format: in vivo, balb/c nude mice; details: endotoxin-free tTF 4 μg; diluent 40-50% spontaneous necrosis
Method: 1×10^7 F9 sarcoma cells were injected subcutaneously into the right flank of balb/c nude mice. Subcutanous tumors were measured with a caliper in three perpendicular directions a, b, and c, and volumes calculated according to the formula V=π/6×a'b×c. Treatment was initiated when subcutaneous tumors reached a size of 150 to 300 μl.
Reagents were administered into the lateral tail vein.
Mice were closely observed after treatment for clinical signs of toxicity and clinical status was documented at defined time points. Three days after treatment, mice were sacrificed and tumors were harvested. Paraffin embedded tissues were stained with hematoxilin and eosin (H&E). Tissue sections were analyzed on a light microscope by two independent investigators and histological findings were documented. Tumor sections with necrotic areas were scanned with a GS-700 imaging densitometer (Biorad, Hercules, Calif.) and areas of necrosis were calculated as % of total section area.

[7] = test system: L540 tumor blood vessels; assay: Thrombosis of L540 tumor vessels by anti-VCAM-1·tTF coaguligand; format: in vivo, mice; details: equivalent quantities
Excerpt: Before coaguligand injection, tumors were viable, having a uniform morphology lacking regions of necrosis. […] Within four hours of coaguligand injection, 40-70% of blood vessels were thrombosed. despite the initial staining of only 20-30% of tumor blood vessels. The thrombosed vessels contained occlusive platelet aggregates, packed erythrocytes and fibrin. In several regions, the blood vessels had ruptured, spilling erythrocytes into the tumor interstitium.

Substance: tTF: extracellular domain of the mature Tissue Factor protein (amino acid 1-219), recombinant; depyrogenated in Example X
- % tumor necrosis ([1]; Table 2, tTF alone, three days after i.v. treatment): 4%
- tumor tissue necrosis ([1]; endotoxin-free tTF alone, 4 μg or 16 μg i.v., three days after treatment): 0%
- anti-tumor effect ([1]; tTF alone, 4 μg to 16 μg): no anti-tumor effect
- anti-tumor effect ([1]; tTF alone, 100 μg): anti-tumor effects begin to appear
- Symptoms (clinical signs of toxicity) [2]: no clinical signs of toxicity
- Symptoms (clinical signs of toxicity) ([2]; listed as TTF): None
- histology of normal organs (necrosis, thrombosis, abnormalities) ([2]; light microscopy, three days after treatment): No histological abnormalities were seen
- TNFα in serum [3]: could not be detected
- Factor Xa generation due to Factor VIIa production ([4]; cells stimulated with 0.5 μg/ml LPS (row Medium = stimulant alone)): 3.00 nkats2222
- Factor Xa generation ([4]; cells stimulated with 0.5 μg/ml LPS, then incubated with row agent (row Medium = stimulant alone)): 2.00 nkats2222
- Factor Xa generation ([4]; cells stimulated with 10 μg/ml LPS, then incubated with row agent (row Medium = stimulant alone)): 2.91 nkats2222
- Factor Xa generation ([4]; cells stimulated with TNFα (500 U/ml), then incubated with row agent (row Medium = stimulant alone)): 0.67 nkats2222
- Factor Xa generation due to Factor VIIa production ([4]; cells stimulated with TNFα (row Medium = stimulant alone)): 1.91 nkats2222
- Factor Xa generation ([4]; cells stimulated with medium, then incubated with row agent): 0.40 nkats2222
- Factor Xa generation due to Factor VIIa production ([4]; cells stimulated with medium): 0.70 nkats2222
- binding to endothelial cells expressing tissue factor [5]: no binding of tTF to endothelial cells
- average tumor tissue necrosis [6]: 45%
- control reagents causing thrombosis [7]: None
